Experimental data reported in US20260265244A1, “HETEROCYCLIC COMPOUNDS AS STING ANTAGONISTS” (Boehringer Ingelheim International GmbH, priority 2022, published 2026).

Test system: STING inhibition in human whole blood (IFNα2α production)
Test: Human whole blood assay (HWBA): cGAMP-stimulated IFNα2α production
Format: cell-based
Details: Homo sapiens
Procedure: For the detection of STING inhibition in physiological environment human whole blood was stimulated by the cyclic dinucleotide cGAMP. Pathway activity was monitored by measuring the IFNα2α production.
Assay method: Compounds were delivered as 10 mM DMSO solution and serial diluted and transferred to the 96-well Cell culture Plate (Corning #3595), prefilled with 20 μl OptiMEM (Gibco #11058-021) in each well, using an Echo acoustic dispenser. Typically, 8 concentrations were used with the highest concentration at 10 μM in the final assay volume followed by ~1:5 dilution steps. DMSO concentration was set to 0.1% in the final assay volume. The 96 well assay plate contained 9 test compounds, a reference compound and DMSO in control wells.
Collection of human whole blood from 3 or more healthy donors (male or female, no medication for 7 days, exception contraceptive and thyroxine) as Na-citrate blood (e.g. 3.8% in Monovettes from Sarstedt) is conducted in parallel. Whole blood was kept at room temperature for a maximum of 3 hours after collection until use in the assay.
160 μl of the whole blood samples were transferred to each well of the 96-well assay plates filled with compound/OptiMEM. All assay plates are prepared as duplicates with blood from different donors. Blood plates were kept at room temperature for 60 minutes and continuous shaking with 450 rpm, covered with the lid, but not sealed.
A 10× cGAMP assay solution was diluted from a 2 mM stock solution in 1×HBSS immediately before use at room temperature. 20 μl of the 10× cGAMP/HBSS were added to all compound and all high control wells, whereas HBSS only was added to all low control wells.
After covering assay plates with aera seals and the lid, blood plates were kept at room temperature for 30 minutes and continuous shaking with 450 rpm, followed by an overnight incubation of 22 h at 37° C. in the incubator, without shaking.
For the detection of IFNα-2α in human plasma, the biotinylated capture antibody (Antibody set IFNA2, Meso Scale Diagnostics #B21VH-3, including coating and capture antibody) was diluted 1:17.5 in Diluent 100 (Meso Scale Diagnostics #R50AA-4, according to the manufacturer. U-Plex MSD GOLD 96-well Small Spot Streptavidin SECTOR Plates (Meso Scale Diagnostics #L45SA-5) were coated with 25 μl diluted capture antibody. Coated plates were incubated for 60 min at room temperature under continuous shaking at 700 rpm. MSD IFNα-2α plates were washed three times with 150 μl wash buffer (1×HBSS, 0.05% Tween).
After blocking the plates with 100 μl block solution/well (1×HBSS with 0.2% Tween, 2% BSA) for 60 min at room temperature and continuous shaking at 700 rpm, plates were emptied as dry as possible by dumping just before continuing with the human plasma. Whole Blood assay plates were centrifuged at 1600 rpm for 10 minutes. 25 μl of supernatant was transferred with a pipetting robotics from each whole blood plate to the corresponding IFNα-2α plate. Plates were sealed with microplate seals and kept at room temperature again under continuous shaking at 700 rpm for two hours. Next MSD IFNα-2α plates were washed three times with 150 μl wash buffer (1×HBSS, 0.05% Tween), before adding 25 μl MSD SULFO-TAG IFNα-2α Antibody solution (1:100 diluted in Diluent 3 (Meso Scale Diagnostics #R50AP-2) to each well of the plates. Afterwards plates were sealed with microplate seals and kept at room temperature again under continuous shaking at 700 rpm for two hours. Finally MSD IFNα-2α plates were washed three times with 150 μl wash buffer (1×HBSS, 0.05% Tween). 150 μl 2×Read buffer was added to each well and plates were immediately measured with the MSD Sector S600 Reader using the vendor barcode.
Data evaluation and calculation: For data evaluation and calculation, % control calculation of each well was based on the mean of high (cGAMP stimulated control) and mean of low (unstimulated control) controls by using the following formula: […]

SMILES | IC50 [nM]
Cc1nc2nn(Cc3cnn(C)c3)cc2cc1-n1nc(-c2cccc3nn(C[C@H](O)c4ccccc4)cc23)c(C(C)C)c1C [Example 24, (1R)-2-[4-(5-methyl-1-{6-methyl-2-[(1-methyl-1H-pyrazol-4-yl)methyl]-2H-pyrazolo[3,4-b]pyridin-5-yl}-4-(propan-2-yl)-1H-pyrazol-3-yl)-2H-indazol-2-yl]-1-phenylethan-1-ol] | 92
Cc1ccc([C@@H](O)Cn2cc3c(-c4nc(-c5cc6cn(C)nc6nc5C(C)C)n(C)c4C4CC4)cccc3n2)cc1 [Example 25, (1R)-2-(4-{5-cyclopropyl-1-methyl-2-[2-methyl-6-(propan-2-yl)-2H-pyrazolo[3,4-b]pyridin-5-yl]-1H-imidazol-4-yl}-2H-indazol-2-yl)-1-(4-methylphenyl)ethan-1-ol] | 97
Cc1c(C(C)C)c(-c2cccc3nn(C[C@H](O)c4ccccc4)cc23)nn1-c1cc2cn(C)nc2nc1CN1CCOCC1 [Example 26, (1R)-2-[4-(5-methyl-1-{2-methyl-6-[(morpholin-4-yl)methyl]-2H-pyrazolo[3,4-b]pyridin-5-yl}-4-(propan-2-yl)-1H-pyrazol-3-yl)-2H-indazol-2-yl]-1-phenylethan-1-ol] | 110
Cn1c(-c2cc3cn(CCCN4CCCC4=O)nc3nc2C2CC2)nc(-c2cccc3nn(C[C@H](O)c4ccccc4)cc23)c1C1CC1 [Example 28, 1-{3-[6-cyclopropyl-5-(5-cyclopropyl-4-{2-[(2R)-2-hydroxy-2-phenylethyl]-2H-indazol-4-yl}-1-methyl-1H-imidazol-2-yl)-2H-pyrazolo[3,4-b]pyridin-2-yl]propyl}pyrrolidin-2-one] | 110
Cc1c(C2CC2)c(-c2cccc3nn(C[C@H](O)c4ccccc4)cc23)nn1-c1cc2cn(C)nc2nc1C1CC1 [Example 29, (1R)-2-[4-(4-cyclopropyl-1-{6-cyclopropyl-2-methyl-2H-pyrazolo[3,4-b]pyridin-5-yl}-5-methyl-1H-pyrazol-3-yl)-2H-indazol-2-yl]-1-phenylethan-1-ol] | 110
CC(C)n1cc2cc(-c3nc(-c4cccc5nn(C[C@H](O)c6ccccc6)cc45)c(C4CC4)n3C)c(C3CC3)nc2n1 [Example 33, (1R)-2-(4-{5-cyclopropyl-2-[6-cyclopropyl-2-(propan-2-yl)-2H-pyrazolo[3,4-b]pyridin-5-yl]-1-methyl-1H-imidazol-4-yl}-2H-indazol-2-yl)-1-phenylethan-1-ol] | 110
CNC(=O)CO[C@@H](Cn1cc2c(-c3nn(-c4cc5cn(C)nc5nc4C)c(C)c3C(C)C)cccc2n1)c1ccccc1 [Example 36, 2-[(1R)-2-[4-(1-{2,6-dimethyl-2H-pyrazolo[3,4-b]pyridin-5-yl)-5-methyl-4-(propan-2-yl)-1H-pyrazol-3-yl)-2H-indazol-2-yl]-1-phenylethoxy]-N-methylacetamide] | 130
Cc1nc2nn(CCCN3CCC(F)(F)C3)cc2cc1-n1nc(-c2cccc3nn(C[C@H](O)c4ccccc4)cc23)c(C(C)C)c1C [Example 40, (1R)-2-[4-(1-{2-[3-(3,3-difluoropyrrolidin-1-yl)propyl]-6-methyl-2H-pyrazolo[3,4-b]pyridin-5-yl}-5-methyl-4-(propan-2-yl)-1H-pyrazol-3-yl)-2H-indazol-2-yl]-1-phenylethan-1-ol] | 140
Cc1nc2nn(C)cc2cc1-n1nc(-c2cccc3nn(C[C@H](O)c4ccc(F)c(F)c4)cc23)c(C(C)C)c1C [Example 44, (1R)-1-(3,4-difluorophenyl)-2-[4-(1-{2,6-dimethyl-2H-pyrazolo[3,4-b]pyridin-5-yl}-5-methyl-4-(propan-2-yl)-1H-pyrazol-3-yl)-2H-indazol-2-yl]ethan-1-ol] | 140
Cc1nc2nn(CCCCN3CCN(C)CC3)cc2cc1-n1nc(-c2cccc3nn(C[C@H](O)c4ccccc4)cc23)c(C(C)C)c1C [Example 45, (1R)-2-[4-(5-methyl-1-{6-methyl-2-[4-(4-methylpiperazin-1-yl)butyl]-2H-pyrazolo[3,4-b]pyridin-5-yl}-4-(propan-2-yl)-1H-pyrazol-3-yl)-2H-indazol-2-yl]-1-phenylethan-1-ol] | 140

More lines, now with the values ahead:

IC50 [nM] | SMILES
110 | Cc1nc2nn(C)cc2cc1-n1nc(-c2cccc3nn(C[C@H](OCF)c4ccccc4)cc23)c(C(C)C)c1C [Example 27, 4-(1-{2,6-dimethyl-2H-pyrazolo[3,4-b]pyridin-5-yl}-5-methyl-4-(propan-2-yl)-1H-pyrazol-3-yl)-2-[(2R)-2-(fluoromethoxy)-2-phenylethyl]-2H-indazole]
110 | CCO[C@@H](Cn1cc2c(-c3nn(-c4cc5cn(C)nc5nc4C)c(C)c3C(C)C)cccc2n1)c1ccccc1 [Example 30, 4-(1-{2,6-dimethyl-2H-pyrazolo[3,4-b]pyridin-5-yl}-5-methyl-4-(propan-2-yl)-1H-pyrazol-3-yl)-2-[(2R)-2-ethoxy-2-phenylethyl]-2H-indazole]
110 | Cc1nc2nn(CCCO)cc2cc1-n1nc(-c2cccc3nn(C[C@H](O)c4ccccc4)cc23)c(C(C)C)c1C [Example 32, 3-[5-(3-{2-[(2R)-2-hydroxy-2-phenylethyl]-2H-indazol-4-yl}-5-methyl-4-(propan-2-yl)-1H-pyrazol-1-yl)-6-methyl-2H-pyrazolo[3,4-b]pyridin-2-yl]propan-1-ol]
120 | Cn1cc2cc(-c3nc(-c4cccc5nn(C[C@H](O)c6ccccc6)cc45)c(C4CC4)n3C)c(OC(F)F)cc2n1 [Example 34, (1R)-2-(4-{5-cyclopropyl-2-[6-(difluoromethoxy)-2-methyl-2H-indazol-5-yl]-1-methyl-1H-imidazol-4-yl}-2H-indazol-2-yl)-1-phenylethan-1-ol]
130 | Cc1c(C2CC2)c(-c2c(F)ccc3nn(C[C@H](O)c4ccccc4)cc23)nn1-c1cc2cn(C)nc2nc1C1CC1 [Example 35, (1R)-2-[4-(4-cyclopropyl-1-{6-cyclopropyl-2-methyl-2H-pyrazolo[3,4-b]pyridin-5-yl}-5-methyl-1H-pyrazol-3-yl)-5-fluoro-2H-indazol-2-yl]-1-phenylethan-1-ol]
130 | Cc1nc2nn(CCO)cc2cc1-n1nc(-c2cccc3nn(C[C@H](O)c4ccccc4)cc23)c(C(C)C)c1C [Example 37, (1R)-2-(4-{1-[2-(2-hydroxyethyl)-6-methyl-2H-pyrazolo[3,4-b]pyridin-5-yl]-5-methyl-4-(propan-2-yl)-1H-pyrazol-3-yl}-2H-indazol-2-yl)-1-phenylethan-1-ol]
130 | Cc1nc2nn(CCN(C)C)cc2cc1-n1nc(-c2cccc3nn(C[C@H](O)c4ccccc4)cc23)c(C(C)C)c1C [Example 39, (1R)-2-[4-(1-{2-[2-(dimethylamino)ethyl]-6-methyl-2H-pyrazolo[3,4-b]pyridin-5-yl}-5-methyl-4-(propan-2-yl)-1H-pyrazol-3-yl)-2H-indazol-2-yl]-1-phenylethan-1-ol]
140 | Cn1cc2cc(-c3nc(-c4cccc5nn(C[C@H](O)c6ccc(OCCC(C)(C)O)cc6)cc45)c(C4CC4)n3C)c(C3CC3)nc2n1 [Example 41, 4-{4-[(1R)-2-[4-(5-cyclopropyl-2-{6-cyclopropyl-2-methyl-2H-pyrazolo[3,4-b]pyridin-5-yl}-1-methyl-1H-imidazol-4-yl)-2H-indazol-2-yl]-1-hydroxyethyl]phenoxy}-2-methylbutan-2-ol]
140 | CNCc1nc2nn(C)cc2cc1-n1nc(-c2cccc3nn(C[C@H](O)c4ccccc4)cc23)c(C(C)C)c1C [Example 42, (1R)-2-[4-(5-methyl-1-{2-methyl-6-[(methylamino)methyl]-2H-pyrazolo[3,4-b]pyridin-5-yl}-4-(propan-2-yl)-1H-pyrazol-3-yl)-2H-indazol-2-yl]-1-phenylethan-1-ol]
